US8008303B2, “Biphenyl derivatives and their use in treating hepatitis C” (AstraZeneca AB, priority 2005, dated 2011)
Where two headings read alike, the source gives them in different places.

What was measured:
[1] = system: HCV replicon cells Huh 9B; assay: HCV replicon assay (luciferase readout); format: cell-based
Method in brief: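 Compounds, made up at twice final strength (final DMSO 1%), were added to subgenomic replicon cells one day after plating. Incubation then ran 72 h at 37 °C, 5% CO2, without G418. Replication was quantified as firefly luciferase luminescence in lysed cells, with cytotoxicity assessed on a duplicate clear plate.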

[2] = system: HCV replicon cells Huh 9B; format: cell-based
[3] = Hepatitis C virus, 72 h, concentration reducing replicon level (luciferase activity) by 50% vs untreated cell control, 72 h incubation
[4] = concentration reducing total cell area by 50% relative to DMSO controls, methylene blue, absorbance 620 nm, 72 h incubation

Row | SMILES | IC50 [1] | TD50 [2] | IC50 [1, 3] | TD50 [2, 4]
1 | COc1cccc(NC(=O)c2cccc(-c3ccc(C(=O)Nc4ccc(N5CCOCC5)cc4)cc3C)c2)c1 [Example 62, 2′-Methyl-biphenyl-3,4′-dicarboxylic acid 3-[(3-methoxy-phenyl)-amide] 4′-[(4-morpholin-4-yl-phenyl)-amide]] | < 1000 nM | * (key: * < 50 μM; ** > 50 μM) | – | –
2 | Cc1cc(C(=O)Nc2ccc(N3CCOCC3)cc2)ccc1-c1cccc(C(=O)Nc2ccc3cn[nH]c3c2)c1 [Example 63, 2′-Methyl-biphenyl-3,4′-dicarboxylic acid 3-[(1H-indazol-6-yl)-amide] 4′-[(4-morpholin-4-yl-phenyl)-amide]] | < 1000 nM | * (key: * < 50 μM; ** > 50 μM) | – | –
3 | Cc1cc(C(=O)Nc2ccc(N3CCOCC3)cc2)ccc1-c1cccc(C(=O)Nc2cccc(Br)c2)c1 [Example 64, 2′-Methyl-biphenyl-3,4′-dicarboxylic acid 3-[(3-bromo-phenyl)-amide] 4′-[(4-morpholin-4-yl-phenyl)-amide]] | < 1000 nM | * (key: * < 50 μM; ** > 50 μM) | – | –
4 | Cc1cc(C(=O)Nc2ccc(N3CCOCC3)cc2)ccc1-c1cccc(C(=O)Nc2ccc(-c3ccno3)cc2)c1 [Example 65, 2′-Methyl-biphenyl-3,4′-dicarboxylic acid 3-[(4-isoxazol-5-yl-phenyl)-amide] 4′-[(4-morpholin-4-yl-phenyl)-amide]] | < 1000 nM | * (key: * < 50 μM; ** > 50 μM) | – | –
5 | Cc1cc(C(=O)Nc2ccc(N3CCOCC3)cc2)ccc1-c1cccc(C(=O)NCc2cccc(Cl)c2)c1 [Example 66, 2′-Methyl-biphenyl-3,4′-dicarboxylic acid 3-(3-chloro-benzylamide) 4′-[(4-morpholin-4-yl-phenyl)-amide]] | 1000 to 5000 nM | * (key: * < 50 μM; ** > 50 μM) | – | –
6 | Cc1ccc(C(=O)Nc2ccc(N3CCOCC3)cc2)cc1-c1ccc(C(=O)Nc2ccc3cn[nH]c3c2)cc1 [Example 67, 6-Methyl-biphenyl-3,4′-dicarboxylic acid 4′-[(1H-indazol-6-yl)-amide] 3-[(4-morpholin-4-yl-phenyl)-amide]] | < 1000 nM | ** (key: * < 50 μM; ** > 50 μM) | – | –
7 | Cc1ccc(NC(=O)c2ccc(N3CCOCC3)cc2)cc1-c1ccc(C(=O)Nc2cccc(OC(F)(F)F)c2)cc1 [Example 68, 2′-Methyl-5′-(4-morpholin-4-yl-benzoylamino)-biphenyl-4-carboxylic acid (3-trifluoromethoxy-phenyl)-amide] | – | – | 1000 to 5000 nM | ** (** > 50 μM)
8 | Cc1ccc(C(=O)Nc2ccc(N3CCOCC3)cc2)cc1-c1ccc(C(=O)Nc2cccc(CN3CCSCC3)c2)cc1 [Example 69, 6-Methyl-biphenyl-3,4′-dicarboxylic acid 3-[(4-morpholin-4-yl-phenyl)-amide] 4′-[(3-thiomorpholin-4-ylmethyl-phenyl)-amide]] | < 1000 nM | * (key: * < 50 μM; ** > 50 μM) | – | –
9 | Cc1ccc(C(=O)Nc2ccc(N3CCOCC3)cc2)cc1-c1ccc(C(=O)Nc2ccc(C(=O)N(C)C)cc2)cc1 [Example 70, 6-Methyl-biphenyl-3,4′-dicarboxylic acid 4′-[(4-dimethylcarbamoyl-phenyl)-amide] 3-[(4-morpholin-4-yl-phenyl)-amide]] | 1000 to 5000 nM | * (key: * < 50 μM; ** > 50 μM) | – | –
10 | CCC1(c2ccc(NC(=O)c3ccc(-c4cc(C(=O)Nc5ccc(N6CCOCC6)cc5)ccc4C)cc3)cc2)CCC(O)NC1=O (stereo not shown) [Example 71, 6-Methyl-biphenyl-3,4′-dicarboxylic acid 4′-{[4-(3-ethyl-6-hydroxy-2-oxo-piperidin-3-yl)-phenyl]-amide} 3-[(4-morpholin-4-yl-phenyl)-amide]] | < 1000 nM | * (key: * < 50 μM; ** > 50 μM) | – | –
11 | CC(=O)Nc1cccc(NC(=O)c2ccc(-c3cc(C(=O)Nc4ccc(N5CCOCC5)cc4)ccc3C)cc2)c1 [Example 72, 6-Methyl-biphenyl-3,4′-dicarboxylic acid 4′-[(3-acetylamino-phenyl)-amide] 3-[(4-morpholin-4-yl-phenyl)-amide]] | 1000 to 5000 nM | * (key: * < 50 μM; ** > 50 μM) | – | –
12 | Cc1ccc(C(=O)Nc2ccc(N3CCOCC3)cc2)cc1-c1ccc(C(=O)Nc2ccc(CN3CCCCC3)cc2)cc1 [Example 73, 6-Methyl-biphenyl-3,4′-dicarboxylic acid 3-[(4-morpholin-4-yl-phenyl)-amide] 4′-[(4-piperidin-1-ylmethyl-phenyl)-amide]] | < 1000 nM | * (key: * < 50 μM; ** > 50 μM) | – | –
13 | Cc1ccc(C(=O)Nc2ccc(N3CCOCC3)cc2)cc1-c1ccc(C(=O)Nc2ccc(CN3CCOCC3)cc2)cc1 [Example 74, 6-Methyl-biphenyl-3,4′-dicarboxylic acid 4′-[(4-morpholin-4-ylmethyl-phenyl)-amide] 3-[(4-morpholin-4-yl-phenyl)-amide]] | 1000 to 5000 nM | * (key: * < 50 μM; ** > 50 μM) | – | –
14 | Cc1ccc(C(=O)Nc2ccc(N3CCOCC3)cc2)cc1-c1ccc(C(=O)Nc2ccc(CN3CCCC3)cc2)cc1 [Example 75, 6-Methyl-biphenyl-3,4′-dicarboxylic acid 3-[(4-morpholin-4-yl-phenyl)-amide] 4′-[(4-pyrrolidin-1-ylmethyl-phenyl)-amide]] | > 5000 nM | * (key: * < 50 μM; ** > 50 μM) | – | –
15 | CCCN(C)Cc1ccc(NC(=O)c2ccc(-c3cc(C(=O)Nc4ccc(N5CCOCC5)cc4)ccc3C)cc2)cc1 [Example 76, 6-Methyl-biphenyl-3,4′-dicarboxylic acid 4′-({4-[(methyl-propyl-amino)-methyl]-phenyl}-amide) 3-[(4-morpholin-4-yl-phenyl)-amide]] | 1000 to 5000 nM | * (key: * < 50 μM; ** > 50 μM) | – | –
16 | CC(=O)Nc1cc(NC(=O)c2ccc(-c3cc(C(=O)Nc4ccc(N5CCOCC5)cc4)ccc3C)cc2)ccc1C [Example 77, 6-Methyl-biphenyl-3,4′-dicarboxylic acid 4′-[(3-acetylamino-4-methyl-phenyl)-amide] 3-[(4-morpholin-4-yl-phenyl)-amide]] | 1000 to 5000 nM | * (key: * < 50 μM; ** > 50 μM) | – | –
17 | Cc1ccc(C(=O)Nc2ccc(N3CCOCC3)cc2)cc1-c1ccc(C(=O)Nc2cccc(NS(C)(=O)=O)c2)cc1 [Example 78, 6-Methyl-biphenyl-3,4′-dicarboxylic acid 4′-[(3-methanesulfonylamino-phenyl)-amide] 3-[(4-morpholin-4-yl-phenyl)-amide]] | 1000 to 5000 nM | * (key: * < 50 μM; ** > 50 μM) | – | –
18 | Cc1ccc(C(=O)Nc2ccc(N3CCOCC3)cc2)cc1-c1ccc(C(=O)Nc2ccc3[nH]c(=O)[nH]c3c2)cc1 [Example 79, 6-Methyl-biphenyl-3,4′-dicarboxylic acid 3-[(4-morpholin-4-yl-phenyl)-amide] 4′-[(2-oxo-2,3-dihydro-1H-benzoimidazol-5-yl)-amide]] | > 5000 nM | * (key: * < 50 μM; ** > 50 μM) | – | –
19 | Cc1ccc(C(=O)Nc2ccc(N3CCOCC3)cc2)cc1-c1ccc(C(=O)Nc2ccccc2CN2CCCCC2)cc1 [Example 80, 6-Methyl-biphenyl-3,4′-dicarboxylic acid 3-[(4-morpholin-4-yl-phenyl)-amide] 4′-[(2-piperidin-1-ylmethyl-phenyl)-amide]] | 1000 to 5000 nM | * (key: * < 50 μM; ** > 50 μM) | – | –
20 | Cc1ccc(C(=O)Nc2ccc(N3CCOCC3)cc2)cc1-c1ccc(C(=O)Nc2ccc(CO)cc2)cc1 [Example 81, 6-Methyl-biphenyl-3,4′-dicarboxylic acid 4′-[(4-hydroxymethyl-phenyl)-amide] 3-[(4-morpholin-4-yl-phenyl)-amide]] | 1000 to 5000 nM | * (key: * < 50 μM; ** > 50 μM) | – | –
21 | Cc1ccc(C(=O)Nc2ccc(N3CCOCC3)cc2)cc1-c1ccc(C(=O)Nc2ccc(CN3CCNCC3)cc2)cc1 [Example 82, 6-Methyl-biphenyl-3,4′-dicarboxylic acid 3-[(4-morpholin-4-yl-phenyl)-amide] 4′-[(4-piperazin-1-ylmethyl-phenyl)-amide]] | 1000 to 5000 nM | * (key: * < 50 μM; ** > 50 μM) | – | –
22 | Cc1ccc(C(=O)Nc2ccc(N3CCOCC3)cc2)cc1-c1ccc(C(=O)NCc2cccc(Cl)c2)cc1 [Example 83, 6-Methyl-biphenyl-3,4′-dicarboxylic acid 4′-(3-chloro-benzylamide) 3-[(4-morpholin-4-yl-phenyl)-amide]] | 1000 to 5000 nM | ** (key: * < 50 μM; ** > 50 μM) | – | –
23 | CCOC(=O)c1ccc(-c2cc(C(=O)Nc3ccc(N4CCOCC4)cc3)ccc2C)cc1 [Example 84, 2′-Methyl-5′-(4-morpholin-4-yl-phenylcarbamoyl)-biphenyl-4-carboxylic acid ethyl ester] | – | – | > 5000 nM | ** (** > 50 μM)
24 | Cc1ccc(NC(=O)c2ccc(N3CCOCC3)cc2)cc1-c1ccc(C(=O)Nc2ccc3[nH]c(C(F)(F)F)nc3c2)cc1 [Example 85, 2′-Methyl-5′-(4-morpholin-4-yl-benzoylamino)-biphenyl-4-carboxylic acid (2-trifluoromethyl-1H-benzoimidazol-5-yl)-amide] | – | – | 1000 to 5000 nM | ** (** > 50 μM)
25 | CC(=O)Nc1ccc(NC(=O)c2ccc(-c3cc(NC(=O)c4ccc(N5CCOCC5)cc4)ccc3C)cc2)cc1 [Example 86, 2′-Methyl-5′-(4-morpholin-4-yl-benzoylamino)-biphenyl-4-carboxylic acid (4-acetylamino-phenyl)-amide] | – | – | 1000 to 5000 nM | ** (** > 50 μM)
26 | Cc1ccc(NC(=O)c2ccc(N3CCOCC3)cc2)cc1-c1ccc(C(=O)Nc2ccc(CN3CCS(=O)(=O)CC3)cc2)cc1 [Example 87, 2′-Methyl-5′-(4-morpholin-4-yl-benzoylamino)-biphenyl-4-carboxylic acid [4-(1,1-dioxo-1lambda*6*-thiomorpholin-4-ylmethyl)-phenyl]-amide] | – | – | < 1000 nM | ** (** > 50 μM)
